Measurements taken from the supplement of paper PMC10307832.

Legend:
Experiment in all cases: relative viability (nuclei count vs DMSO), 5 days (fraction); higher = more cells survive
[1] = compound: CCn1c(-c2nonc2N)nc2c(C#CC(C)(C)O)ncc(OC[C@H]3CCCNC3)c21 + CS(=O)(=O)N1CCN(Cc2cc3nc(-c4cccc5[nH]ncc45)nc(N4CCOCC4)c3s2)CC1 [Pictilisib] (partner 1 µM)
How it was run: (§1)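 For relative viability, nuclei counts in treated wells were divided by those in vehicle wells. Lung cancer cell lines had been pin-tool dosed in 1536-well plates the day after seeding and cultured for 5 days, then fixed and stained in one step (final 0.05% Triton X-100, 1% formaldehyde, 1 ug/ml Hoechst) and imaged at 4×. Doses were one drug alone or a fixed anchor-drug dose plus five library-drug doses (not always all listed) in √10 steps, and values are duplicate-plate medians.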

BAM7 + Olaparib = compound: CCOC1=CC=CC=C1N=NC2=C(NN(C2=O)C3=NC(=CS3)C4=CC=CC=C4)C [BAM7] + O=C(c1cc(Cc2n[nH]c(=O)c3ccccc23)ccc1F)N1CCN(C(=O)C2CC2)CC1 [Olaparib] (partner 8 µM)
How it was run: as §1

BAM7 + Luminespib = compound: CCOC1=CC=CC=C1N=NC2=C(NN(C2=O)C3=NC(=CS3)C4=CC=CC=C4)C [BAM7] + CCNC(=O)c1noc(-c2cc(C(C)C)c(O)cc2O)c1-c1ccc(CN2CCOCC2)cc1 [Luminespib] (partner 0.01 µM)
How it was run: as §1

[2] = compound: CCn1c(-c2nonc2N)nc2c(C#CC(C)(C)O)ncc(OC[C@H]3CCCNC3)c21 + NC(=O)Nc1cc(-c2cccc(F)c2)sc1C(=O)N[C@H]1CCCNC1 [AZD7762] (partner 0.2 µM)
How it was run: as §1

Cell Line	relative viability ([1]; first compound 0.01 µM)	relative viability ([1]; first compound 0.03162 µM)	relative viability ([1]; first compound 0.1 µM)	relative viability ([1]; first compound 0.3162 µM)	relative viability ([1]; first compound 1 µM)	relative viability (BAM7 + Olaparib; first compound 0.5 µM)	relative viability (BAM7 + Olaparib; first compound 5 µM)	relative viability (BAM7 + Olaparib; first compound 15.81 µM)	relative viability (BAM7 + Olaparib; first compound 50 µM)	relative viability (BAM7 + Luminespib; first compound 0.5 µM)	relative viability (BAM7 + Luminespib; first compound 5 µM)	relative viability (BAM7 + Luminespib; first compound 15.81 µM)	relative viability (BAM7 + Luminespib; first compound 50 µM)	relative viability ([2]; first compound 0.01 µM)	relative viability ([2]; first compound 0.03162 µM)	relative viability ([2]; first compound 0.1 µM)	relative viability ([2]; first compound 0.3162 µM)	relative viability ([2]; first compound 1 µM)
NCI-H1915	0.977	0.941	0.957	0.871	0.979	0.269	0.262	0.223	0.259	0.769	0.886	0.833	0.76	0.699	0.698	0.672	0.648	0.607
NCI-H1793	0.282	0.322	0.378	0.346	0.317	0.926	0.882	0.791	0.95	0.172	0.153	0.201	0.17	0.45	0.716	–	0.412	0.411
RERF-LC-KJ	0.578	0.566	0.556	0.567	0.535	0.346	0.3	0.288	0.304	1.19	0.93	0.726	0.759	1	1.07	0.949	0.867	1.05
LXF-289	0.765	0.798	0.715	0.723	0.793	1.17	1.05	1.02	1.09	0.756	0.686	0.628	0.665	1.2	1.15	1.11	1.06	1.1
PC-14	0.633	0.754	0.75	0.72	0.564	0.305	0.216	0.161	0.234	0.208	0.16	0.152	0.143	0.31	0.285	0.356	0.31	0.342
NCI-H650	0.867	0.96	0.968	0.521	0.758	0.424	0.363	0.381	0.368	0.73	1.03	0.755	0.917	0.948	1.05	0.998	0.878	1.08
NCI-H1666	0.533	0.395	0.543	0.408	0.392	0.818	0.727	0.752	0.781	1	0.953	1.03	1.03	0.806	0.827	0.839	0.804	0.876
NCI-H2085	0.436	0.437	0.373	0.404	0.462	0.83	0.804	0.785	0.786	0.436	0.376	0.503	0.372	0.966	0.982	1.01	0.954	1
NCI-H1734	0.456	0.466	0.403	0.423	0.461	0.57	0.664	0.599	0.609	0.215	0.202	0.171	0.211	0.66	0.581	0.452	0.548	0.504
NCI-H2126	0.548	0.496	0.494	0.442	0.449	0.892	0.877	0.905	0.92	0.891	0.86	0.76	0.954	0.995	0.982	1	1.02	1.04
EMC-BAC-2	0.563	0.51	0.497	0.493	0.528	0.485	0.476	0.469	0.565	1.13	1.28	1.12	1.15	1.11	1.04	1.08	0.94	1.17
NCI-H1993	1.03	0.735	0.887	0.866	0.887	0.955	1.08	0.888	0.98	0.81	0.869	0.744	0.702	0.836	0.954	0.923	0.738	0.725
NCI-H647	0.366	0.468	0.23	0.368	0.44	0.711	0.67	0.549	0.524	0.241	0.18	0.191	0.146	0.433	0.437	0.45	0.423	0.486
NCI-H1792	0.322	0.276	0.252	0.233	0.249	0.42	0.374	0.391	0.425	0.501	0.46	0.421	0.509	0.761	1.01	0.794	0.612	0.602
ChaGo-K-1	0.824	0.601	0.7	0.756	0.839	0.377	0.377	0.292	0.396	0.509	0.573	0.58	0.613	0.87	0.885	0.868	0.836	0.758
LOU-NH91	0.547	0.501	0.483	0.504	0.526	0.949	0.955	0.894	0.893	0.38	0.336	0.332	0.347	0.78	0.693	0.755	0.689	0.68
NCI-H2405	0.407	0.492	–	0.445	0.406	0.936	0.936	0.889	0.908	0.868	0.77	0.824	0.68	0.773	0.77	0.792	0.731	0.721
LCLC-97TM1	–	0.208	0.231	0.21	0.158	0.362	0.472	–	0.432	0.848	0.803	0.825	1.01	0.279	0.269	0.206	0.292	0.294

Cell Line	relative viability ([1]; first compound 0.01 µM)	relative viability ([1]; first compound 0.03162 µM)	relative viability ([1]; first compound 0.1 µM)	relative viability ([1]; first compound 0.3162 µM)	relative viability ([1]; first compound 1 µM)	relative viability (BAM7 + Olaparib; first compound 0.5 µM)	relative viability (BAM7 + Olaparib; first compound 5 µM)	relative viability (BAM7 + Olaparib; first compound 15.81 µM)	relative viability (BAM7 + Olaparib; first compound 50 µM)	relative viability (BAM7 + Luminespib; first compound 0.5 µM)	relative viability (BAM7 + Luminespib; first compound 5 µM)	relative viability (BAM7 + Luminespib; first compound 15.81 µM)	relative viability (BAM7 + Luminespib; first compound 50 µM)	relative viability ([2]; first compound 0.01 µM)	relative viability ([2]; first compound 0.03162 µM)	relative viability ([2]; first compound 0.1 µM)	relative viability ([2]; first compound 0.3162 µM)	relative viability ([2]; first compound 1 µM)
NCI-H596	0.398	0.344	0.366	0.377	0.436	0.665	0.625	0.636	0.697	0.848	0.956	0.951	1.18	1.18	–	1.12	1.21	1.06
NCI-H727	0.441	0.355	0.275	0.43	0.315	0.707	0.58	0.522	0.573	0.215	–	0.345	0.33	0.586	0.6	0.768	0.631	0.576
H3255	0.457	0.526	0.421	0.465	0.486	0.597	0.666	0.417	0.405	0.801	1.12	0.787	1.03	0.857	0.943	1	0.839	0.846
NCI-H1437	0.445	0.522	0.432	0.406	0.378	0.557	0.546	0.526	0.492	1.16	1.13	1.12	1.09	1.03	1.17	1.18	1.08	0.953
LU99A	0.33	0.353	0.294	0.293	0.324	0.272	0.257	0.312	0.254	0.251	0.316	0.207	0.247	0.345	0.363	0.379	0.297	0.378
HCC-827	1.18	0.966	0.865	0.916	1.19	0.0377	0.627	0.62	0.649	0.582	0.646	0.672	0.651	0.233	0.256	0.273	0.199	0.196
LK-2	0.509	0.577	0.503	0.589	0.729	0.885	0.891	0.918	0.666	0.221	0.172	0.228	0.191	0.457	0.446	0.291	0.339	0.303
BEN	0.565	0.584	0.489	0.574	0.596	1.2	1.09	0.809	1.04	0.444	0.494	0.382	0.272	0.629	0.696	0.562	0.686	0.696
NCI-H23	0.421	0.375	0.373	0.445	0.417	0.374	0.271	0.258	0.291	0.218	0.249	0.225	0.206	0.222	0.268	0.228	0.208	0.265
NCI-H1395	0.665	0.536	0.561	0.553	0.57	0.492	0.472	0.445	0.425	0.713	0.929	0.514	0.673	0.379	0.329	0.433	0.368	0.389
201T	0.722	0.667	0.701	0.644	0.723	0.774	0.746	0.691	0.765	0.984	1.11	0.793	1.01	0.679	0.713	0.628	0.51	0.68
NCI-H2170	0.301	0.296	0.342	0.312	0.281	0.497	0.447	0.439	0.476	0.752	0.686	0.544	0.624	0.756	0.947	0.86	0.84	0.941
NCI-H460	0.426	0.314	0.203	0.306	0.203	0.537	0.438	0.327	0.344	0.0323	0.0283	0.029	0.0339	0.633	0.649	0.575	0.636	0.618
HCC-15	0.689	0.724	0.685	0.738	0.743	0.849	0.695	0.687	0.728	0.338	0.439	0.4	0.187	1.2	1.26	1.17	1.13	1.37
ABC-1	0.64	0.862	0.73	0.569	0.634	0.765	1.25	0.638	0.559	0.291	0.496	0.469	0.773	0.705	–	0.568	0.716	0.594
LCLC-103H	0.591	0.59	0.527	0.622	0.625	0.77	0.795	0.72	0.686	0.837	0.919	0.946	0.979	0.752	0.862	0.743	0.668	0.696
NCI-H441	0.472	0.494	0.522	0.486	0.466	0.76	0.523	0.561	0.574	0.411	0.326	0.381	0.351	1.11	1.17	1	0.988	1.1
EPLC-272H	0.287	0.282	0.286	0.301	0.314	0.465	0.935	0.594	0.651	0.317	–	0.317	0.507	0.198	0.171	0.17	0.192	0.211
